Test results taken from patent US20230158025A1 (UNIVERSITY OF UTAH RESEARCH FOUNDATION, priority 2020, published 2023).
Like-named read-outs stand apart in the source and are kept apart here.

Experiments:
[1] = biological target: recombinant mouse GALK1 (Mus musculus, UniProt Q9R0N0); assay: mGALK1 biochemical activity assay (Kinase-Glo Plus, ATP depletion)
Summary of the method: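 Recombinant GALK1 (5 nM) with 100 μM galactose; GALK1 turnover read as ATP depletion by Kinase-Glo Plus luminescence. Reaction ran 1 h at room temperature before detection reagent was added.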

[2] = PAMPA permeability
[3] = biological target: recombinant human GALK1 (Homo sapiens, UniProt P51570); assay: hGALK1 biochemical activity assay (Kinase-Glo Plus, ATP depletion)
Summary of the method: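 Turnover is measured as ATP depletion by Kinase-Glo Plus luminescence after a 1 h room-temperature reaction. Compounds span 11 concentrations, 57.4 μM–0.97 nM, in final 20 mM HEPES pH 8.0 with 5 mM MgCl2. The substrate solution held 35 μM ATP; the added solution held 5 nM human or mouse GALK1 and 100 μM galactose.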

[4] = aqueous kinetic solubility
[5] = rat microsomal stability (RLM)
[6] = Tables 2-15, 35 μM ATP, 100 μM galactose, 1 h, bracketed figure after some values is undefined and not reported, read-out: mGALK IC50
[7] = recombinant mouse GALK1, Kinase-Glo Plus ATP depletion, read-out: mGALK
[8] = Tables 2-15, 35 μM ATP, 100 μM galactose, 1 h, bracketed figure after some values (e.g. −1.2) is undefined and not reported, read-out: hGALK IC50
[9] = recombinant human GALK1, Kinase-Glo Plus ATP depletion, read-out: hGALK
[10] = recombinant mouse GALK1, Kinase-Glo Plus ATP depletion, bracketed figure in the cell, e.g. (−1.2), is not defined in the text shown, read-out: mGALK
[11] = recombinant human GALK1, Kinase-Glo Plus ATP depletion, bracketed figure in the cell, e.g. (−1.2), is not defined in the text shown, read-out: hGALK
[12] = microsomal stability half-life, minutes

Chain of recombinant human GALK1 (P51570 whole entry): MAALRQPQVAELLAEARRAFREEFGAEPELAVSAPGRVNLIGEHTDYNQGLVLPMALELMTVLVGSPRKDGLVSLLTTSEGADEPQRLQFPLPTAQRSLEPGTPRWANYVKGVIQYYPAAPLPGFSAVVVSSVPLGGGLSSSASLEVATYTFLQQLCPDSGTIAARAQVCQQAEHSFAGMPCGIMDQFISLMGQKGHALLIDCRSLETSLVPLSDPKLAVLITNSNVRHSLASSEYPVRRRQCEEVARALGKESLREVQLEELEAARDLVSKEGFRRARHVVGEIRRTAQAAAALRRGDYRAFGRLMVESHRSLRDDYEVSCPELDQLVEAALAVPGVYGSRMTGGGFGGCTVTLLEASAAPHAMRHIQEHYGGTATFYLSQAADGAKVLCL
Chain of recombinant mouse GALK1 (Q9R0N0 whole entry): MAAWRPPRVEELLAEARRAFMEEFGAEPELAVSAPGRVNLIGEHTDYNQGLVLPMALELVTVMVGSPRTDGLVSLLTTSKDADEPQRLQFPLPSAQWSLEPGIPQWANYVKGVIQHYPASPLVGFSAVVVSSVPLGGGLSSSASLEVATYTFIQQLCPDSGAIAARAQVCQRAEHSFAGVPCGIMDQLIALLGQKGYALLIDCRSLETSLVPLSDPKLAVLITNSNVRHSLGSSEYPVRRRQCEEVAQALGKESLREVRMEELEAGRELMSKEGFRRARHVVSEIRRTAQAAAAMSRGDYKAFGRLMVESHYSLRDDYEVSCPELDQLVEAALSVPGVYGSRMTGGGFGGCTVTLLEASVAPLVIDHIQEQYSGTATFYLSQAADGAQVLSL

SMILES	IC50 [1, 6]	IC50 [1, 7]	Papp ([2]; PAMPA, Perm. (1 × 10^−6 cm/sec))	IC50 [3, 8]	IC50 [3, 9]	Sol. [4]	Metab. Stabil. (m) ([5]; microsomal half-life)	Perm. (1 × 10^−6 cm/sec) [2]	Perm. (1 × 10^−6 cm/sec) ([2]; PAMPA)	Sol. ([4]; aqueous kinetic solubility)	Metab. Stabil. (m) ([5]; microsomal stability half-life)	IC50 [1, 10]	IC50 [3, 11]	Metab. Stabil. (m) [5, 12]	mGALK (μM) ([1]; recombinant mouse GALK1, Kinase-Glo Plus ATP depletion)	hGALK (μM) ([3]; recombinant human GALK1, Kinase-Glo Plus ATP depletion)
COc1ccc(C2N=C(Nc3nc4cccc(N)c4o3)NC(C)=C2C(=O)Nc2cc(C(=O)O)ccn2)c(Cl)c1 (racemic) [Compound 80, 2-(2-((7-aminobenzo[d]oxazol-2-yl)amino)-4-(2-chloro-4-methoxyphenyl)-6-methyl-1,4-dihydropyrimidine-5-carboxamido)isonicotinic acid]	1.93 µM	1.93 µM	< 1 ×10⁻⁶ cm/s	0.14 µM	0.14 µM	>81 µg/mL	>30 m									
CC1=C(C(=O)Nc2cc(C(=O)O)ccn2)C(c2ccccc2Cl)N=C(Nc2nc3c(N)cccc3o2)N1 (centres unmarked) [Compound 2, 2-(2-((4-aminobenzo[d]oxazol-2-yl)amino)-4-(2-chlorophenyl)-6-methyl-1,4-dihydropyrimidine-5-carboxamido)isonicotinic acid]	30.6 µM	30.6 µM			21.7 µM	>76 µg/mL	>30 m	<1 1 × 10^−6 cm/sec								
CCn1cc(CNC(=O)C2=C(C)NC(Nc3nc4ccc(F)c(N)c4o3)=NC2c2ccc(Cl)cc2Cl)cn1 (centres unmarked) [Compound 130, 2-((7-amino-6-fluorobenzo[d]oxazol-2-yl)amino)-4-(2,4-dichlorophenyl)-N-((1-ethyl-1H-pyrazol-4-yl)methyl)-6-methyl-1,4-dihydropyrimidine-5-carboxamide]		1.93 µM			0.27 µM				380.3 1 × 10^−6 cm/sec	<1 µg/mL	6.787 m					
CC1=C(C(=O)Nc2cc(C(=O)O)ccn2)C(c2ccc(-c3ccc(C(F)(F)F)nc3)cc2Cl)N=C(Nc2nc3ccc(F)cc3o2)N1 (centres unmarked) [Compound 70, 2-(4-(2-chloro-4-(6-(trifluoromethyl)pyridin-3-yl)phenyl)-2-((6-fluorobenzo[d]oxazol-2-yl)amino)-6-methyl-1,4-dihydropyrimidine-5-carboxamido)isonicotinic acid]	3.85 µM	3.85 µM		1.21 µM	1.21 µM	28.6 µg/mL	>30 m	<1 1 × 10^−6 cm/sec								
CC1=C(C(=O)Nc2cc(C(=O)O)ccn2)[C@@H](c2ccc(C)cc2Cl)N=C(Nc2nc3cccc(N)c3o2)N1 [Compound 84, (S)-2-(2-((7-aminobenzo[d]oxazol-2-yl)amino)-4-(2-chloro-4-methylphenyl)-6-methyl-1,4-dihydropyrimidine-5-carboxamido)isonicotinic acid]	21.7 µM	21.7 µM		3.43 µM	3.43 µM	>78 µg/mL	>30 m	<1 1 × 10^−6 cm/sec								
CC1=C(C(=O)NCc2cnn(C)c2)C(c2ccc(C)cc2Cl)N=C(Nc2nc3cnccc3o2)N1 (centres unmarked) [Compound 104, 4-(2-chloro-4-methylphenyl)-6-methyl-N-((1-methyl-1H-pyrazol-4-yl)methyl)-2-(oxazolo[4,5-c]pyridin-2-ylamino)-1,4-dihydropyrimidine-5-carboxamide]	12.2 µM	12.2 µM		3.06 µM	3.06 µM	>49 µg/mL	5.12 m	127.62 1 × 10^−6 cm/sec								
CC1=C(C(=O)Nc2cc(C(=O)O)ccn2)C(c2cc(C(=O)O)ccc2Cl)N=C(Nc2nc3ccc(F)cc3o2)N1 (centres unmarked) [Compound 73, 2-(4-(5-carboxy-2-chlorophenyl)-2-((6-fluorobenzo[d]oxazol-2-yl)amino)-6-methyl-1,4-dihydropyrimidine-5-carboxamido)isonicotinic acid]	12.2 µM	12.2 µM		1.72 µM	1.72 µM	>83 µg/mL	>30 m	2.85 1 × 10^−6 cm/sec								
O=C(O)CNC(=O)C1CC(=O)C2=C(C1)NC(Nc1nc3ccccc3o1)=NC2c1ccccc1Cl (centres unmarked) [Compound 283, (2-(benzo[d]oxazol-2-ylamino)-4-(2-chlorophenyl)-5-oxo-1,4,5,6,7,8-hexahydroquinazoline-7-carbonyl)glycine]									<1 1 × 10^−6 cm/sec	58.23 µg/mL		4.85 µM	3.43 µM	>30 m		
CC1=C(C(=O)Nc2nnc(-c3cccnc3)s2)C(c2ccccc2Cl)N=C(Nc2nc3cc(Cl)ccc3o2)N1 (centres unmarked) [Compound 98]		19.3 µM			6.11 µM	<1 µg/mL	>30 m	<3.4 1 × 10^−6 cm/sec								
CC1=C(C(=O)Nc2cc(C(=O)O)ccn2)C(c2cccc(N)c2Cl)N=C(Nc2nc3ccc(F)cc3o2)N1 (centres unmarked) [Compound 64, 2-(4-(3-amino-2-chlorophenyl)-2-((6-fluorobenzo[d]oxazol-2-yl)amino)-6-methyl-1,4-dihydropyrimidine-5-carboxamido)isonicotinic acid]	17.2 µM	17.2 µM		3.06 µM	3.06 µM	>79 µg/mL	>30 m	<1 1 × 10^−6 cm/sec								
CC1=C(C(=O)Nc2cc(C(=O)O)ccn2)C(c2cccc([N+](=O)[O-])c2Cl)N=C(Nc2nc3ccc(F)cc3o2)N1 (centres unmarked) [Compound 63, 2-(4-(2-chloro-3-nitrophenyl)-2-((6-fluorobenzo[d]oxazol-2-yl)amino)-6-methyl-1,4-dihydropyrimidine-5-carboxamido)isonicotinic acid]		34.3 µM			19.3 µM	>84 µg/mL	>30 m	<1 1 × 10^−6 cm/sec								
CC1=C(C(=O)Nc2nncs2)C(c2ccc(C)cc2Cl)N=C(Nc2nc3ccccc3o2)N1 (centres unmarked) [Compound 264, 2-(benzo[d]oxazol-2-ylamino)-4-(2-chloro-4-methylphenyl)-6-methyl-N-(1,3,4-thiadiazol-2-yl)-1,4-dihydropyrimidine-5-carboxamide]									<14.4 1 × 10^−6 cm/sec	<1 µg/mL		6.11 µM	3.06 µM	>30 m		
CC1=C(C(=O)Nc2cc(C(=O)O)ccc2Cl)C(c2ccccc2Cl)N=C(Nc2nc3ccc(F)cc3o2)N1 (centres unmarked) [Compound 29, 4-chloro-3-(4-(2-chlorophenyl)-2-((6-fluorobenzo[d]oxazol-2-yl)amino)-6-methyl-1,4-dihydropyrimidine-5-carboxamido)benzoic acid]		19.3 µM			1.54 µM	54.0 µg/mL	>30 m	29.6 1 × 10^−6 cm/sec								
CC1=C(C(=O)Nc2nnc(-c3cccnc3)s2)C(c2ccccc2Cl)N=C(Nc2nc3ccc(C)cc3o2)N1 (centres unmarked) [Compound 99, 4-(2-chlorophenyl)-2-((6-methylbenzo[d]oxazol-2-yl)amino)-6-methyl-N-(5-(pyridin-3-yl)-1,3,4-thiadiazol-2-yl)-1,4-dihydropyrimidine-5-carboxamide]						<1 µg/mL	>30 m	<2.9 1 × 10^−6 cm/sec							in- active	in- active
